Reference: US10081561B2, “Reduction of hydrogen sulfide and/or malodor gassing from water via the addition of peroxyacetic acid/hydrogen peroxide product” (priority 2013, dated 2018)

System: aerobe population and SRP population
Test: PAA demand study, assumed microbial kill efficiency (FIG. 2)
Type: cell-based
Conditions: assumed for FIG. 2
Source text: Referring now to FIG. 2 there is shown a graph of one such example. If we assume that in a given system the aerobe population is 1,000,000 per mL and the SRP population is 100,000 per mL and we perform a PAA demand study to understand the microbial kill efficiency we can then determine how much PAA to add to minimize the SRP population without killing so many aerobes that it is detrimental to the waste water plant. This graph assumes that reduction after treatment may be something like: 50% reduction with a 20 ppm PAA treatment, 90% reduction with a 40 ppm treatment, and 99% reduction with a 60 ppm treatment. The goal of treatment would be to suppress the SPR population as much as possible while still allowing a sufficient number of aerobes to survive and move into the waste process.

CC(=O)OO [PAA, peroxyacetic acid]
reduction after treatment (20 ppm PAA treatment): ~50%
reduction after treatment (40 ppm treatment): ~90%
reduction after treatment (60 ppm treatment): ~99%
